{
  "source": "PubChem BioAssay AID1259407",
  "about": "(Chemical Carcinogenesis Research Information System (CCRIS), 2018)",
  "test_system": "CCRIS mutagenicity, Ames/micronucleus/aberration tests",
  "experiment": "CCRIS mutagenicity studies",
  "note": "The source made the active and inactive calls. The rule behind the calls is not given here.",
  "data": [
    {"smiles": "C=CC#N", "values": [
      {"measurement": "mutagenic call", "setting": "End Point: IN VITRO CHROMOSOMAL ABERRATIONS, Test System: CHL CELLS, Metabolic Activation: RAT, LIVER, S-9, SODIUM PHENOBARBITAL AND 5,6-BENZOFLAVONE", "result": "active; positive (structural changes)"},
      {"measurement": "mutagenic call", "setting": "End Point: IN VIVO CHROMOSOMAL ABERRATIONS, Test System: BONE MARROW CELLS, Species: MOUSE, Strain/Sex: C57B1/6/MALE, Route: IP INJECTION (ONCE)", "result": "inactive; negative"},
      {"measurement": "mutagenic call", "setting": "Test System: AMES SALMONELLA TYPHIMURIUM, Strain/Indicator: TA97, Metabolic Activation: HAMSTER LIVER S-9, AROCLOR 1254 (10%), Method: PREINCUBATION", "result": "inactive; negative"},
      {"measurement": "mutagenic call", "setting": "Test System: AMES SALMONELLA TYPHIMURIUM, Strain/Indicator: TA97, Metabolic Activation: NONE, Method: PREINCUBATION", "result": "inactive; negative"},
      {"measurement": "mutagenic call", "setting": "Test System: AMES SALMONELLA TYPHIMURIUM, Strain/Indicator: TA97, Metabolic Activation: NONE, Method: STANDARD PLATE", "result": "inactive; negative"},
      {"measurement": "mutagenic call", "setting": "Test System: AMES SALMONELLA TYPHIMURIUM, Strain/Indicator: TA97, Metabolic Activation: RAT LIVER S-9, AROCLOR 1254 (10%), Method: PREINCUBATION", "result": "inactive; negative"},
      {"measurement": "mutagenic call", "setting": "Test System: AMES SALMONELLA TYPHIMURIUM, Strain/Indicator: TA97, Metabolic Activation: RAT, LIVER, S-9, AROCLOR 1254, Method: STANDARD PLATE", "result": "inactive; negative"},
      {"measurement": "mutagenic call", "setting": "Test System: AMES SALMONELLA TYPHIMURIUM, Strain/Indicator: TA97, Metabolic Activation: S-9, Method: STANDARD PLATE", "result": "inactive; negative"},
      {"measurement": "mutagenic call", "setting": "Test System: AMES SALMONELLA TYPHIMURIUM, Strain/Indicator: TA98, Metabolic Activation: HAMSTER LIVER S-9, AROCLOR 1254 (10%), Method: PREINCUBATION", "result": "inactive; negative"},
      {"measurement": "mutagenic call", "setting": "Test System: AMES SALMONELLA TYPHIMURIUM, Strain/Indicator: TA98, Metabolic Activation: NONE, Method: PREINCUBATION", "result": "inactive; negative"},
      {"measurement": "mutagenic call", "setting": "Test System: AMES SALMONELLA TYPHIMURIUM, Strain/Indicator: TA98, Metabolic Activation: NONE, Method: STANDARD PLATE", "result": "inactive; negative"},
      {"measurement": "mutagenic call", "setting": "Test System: AMES SALMONELLA TYPHIMURIUM; Strain/Indicator: TA98; Metabolic Activation: RAT LIVER S-9, AROCLOR 1254 910%), Method: PREINCUBATION", "result": "inactive; negative"},
      {"measurement": "mutagenic call", "setting": "Test System: AMES SALMONELLA TYPHIMURIUM, Strain/Indicator: TA98, Metabolic Activation: RAT, LIVER, S-9, AROCLOR 1254, Method: STANDARD PLATE", "result": "inactive; negative"},
      {"measurement": "mutagenic call", "setting": "Test System: AMES SALMONELLA TYPHIMURIUM, Strain/Indicator: TA98, Metabolic Activation: S-9, Method: STANDARD PLATE", "result": "inactive; negative"},
      {"measurement": "mutagenic call", "setting": "Test System: AMES SALMONELLA TYPHIMURIUM, Strain/Indicator: TA100, Metabolic Activation: HAMSTER LIVER S-9, AROCLOR 1254 (5%), Method: PREINCUBATION", "result": "inactive; negative"},
      {"measurement": "mutagenic call", "setting": "Test System: AMES SALMONELLA TYPHIMURIUM, Strain/Indicator: TA100, Metabolic Activation: HAMSTER LIVER S-9, AROCLOR 1254 (5 OR 10%), Method: PREINCUBATION", "result": "inactive; negative"},
      {"measurement": "mutagenic call", "setting": "Test System: AMES SALMONELLA TYPHIMURIUM, Strain/Indicator: TA100, Metabolic Activation: HAMSTER LIVER S-9, AROCLOR 1254 (10% OR 30%), Method: PREINCUBATION", "result": "active; positive"},
      {"measurement": "mutagenic call", "setting": "Test System: AMES SALMONELLA TYPHIMURIUM, Strain/Indicator: TA100, Metabolic Activation: HAMSTER LIVER S-9, AROCLOR 1254 (10%), Method: PREINCUBATION", "result": "active; positive"},
      {"measurement": "mutagenic call", "setting": "Test System: AMES SALMONELLA TYPHIMURIUM, Strain/Indicator: TA100, Metabolic Activation: HAMSTER LIVER S-9, AROCLOR 1254 (30%), Method: PREINCUBATION", "result": "active; positive"},
      {"measurement": "mutagenic call", "setting": "Test System: AMES SALMONELLA TYPHIMURIUM, Strain/Indicator: TA100, Metabolic Activation: HAMSTER, LIVER, S-9, AROCLOR 1254 (5, 10, 20%), Method: PREINCUBATION", "result": "active; positive"},
      {"measurement": "mutagenic call", "setting": "Test System: AMES SALMONELLA TYPHIMURIUM, Strain/Indicator: TA100, Metabolic Activation: HAMSTER, LIVER, S-9, AROCLOR 1254 (20%), Method: PREINCUBATION", "result": "active; positive"},
      {"measurement": "mutagenic call", "setting": "Test System: AMES SALMONELLA TYPHIMURIUM, Strain/Indicator: TA100, Metabolic Activation: NONE, Method: PREINCUBATION", "result": "inactive; negative"},
      {"measurement": "mutagenic call", "setting": "Test System: AMES SALMONELLA TYPHIMURIUM, Strain/Indicator: TA100, Metabolic Activation: NONE, Method: STANDARD PLATE", "result": "inactive; negative"},
      {"measurement": "mutagenic call", "setting": "Test System: AMES SALMONELLA TYPHIMURIUM, Strain/Indicator: TA100, Metabolic Activation: RAT LIVER S-9, AROCLOR 1254 (5, 10, OR 30%), Method: PREINCUBATION", "result": "inactive; negative"},
      {"measurement": "mutagenic call", "setting": "Test System: AMES SALMONELLA TYPHIMURIUM, Strain/Indicator: TA100, Metabolic Activation: RAT LIVER S-9, AROCLOR 1254 (5/%, 10% OR 30%), Method: PREINCUBATION", "result": "inactive; negative"},
      {"measurement": "mutagenic call", "setting": "Test System: AMES SALMONELLA TYPHIMURIUM, Strain/Indicator: TA100, Metabolic Activation: RAT LIVER S-9, AROCLOR 1254 (10%), Method: PREINCUBATION", "result": "inactive; negative"},
      {"measurement": "mutagenic call", "setting": "Test System: AMES SALMONELLA TYPHIMURIUM, Strain/Indicator: TA100, Metabolic Activation: RAT, LIVER, S-9, AROCLOR 1254, Method: FLUCTUATION", "result": "active; positive"},
      {"measurement": "mutagenic call", "setting": "Test System: AMES SALMONELLA TYPHIMURIUM, Strain/Indicator: TA100, Metabolic Activation: RAT, LIVER, S-9, AROCLOR 1254, Method: STANDARD PLATE", "result": "inactive; negative"},
      {"measurement": "mutagenic call", "setting": "Test System: AMES SALMONELLA TYPHIMURIUM, Strain/Indicator: TA100, Metabolic Activation: S-9, Method: STANDARD PLATE", "result": "inactive; negative"},
      {"measurement": "mutagenic call", "setting": "Test System: AMES SALMONELLA TYPHIMURIUM, Strain/Indicator: TA102, Metabolic Activation: NONE, Method: STANDARD PLATE", "result": "inactive; negative"},
      {"measurement": "mutagenic call", "setting": "Test System: AMES SALMONELLA TYPHIMURIUM, Strain/Indicator: TA102, Metabolic Activation: S-9, Method: STANDARD PLATE", "result": "inactive; negative"},
      {"measurement": "mutagenic call", "setting": "Test System: AMES SALMONELLA TYPHIMURIUM, Strain/Indicator: TA1530, Metabolic Activation: RAT, LIVER, S-9, 3-METHYLCHOLANTHRENE OR PCB OR PHENOBARBITAL, Method: FLUCTUATION", "result": "active; positive"},
      {"measurement": "mutagenic call", "setting": "Test System: AMES SALMONELLA TYPHIMURIUM, Strain/Indicator: TA1530, Metabolic Activation: RAT, LIVER, S-9, PCB OR PHENOBARBITAL, Method: DESICCATOR", "result": "active; positive"}
    ]}
  ]
}
